The molecules below were run against T1, human TLR8 (Homo sapiens, UniProt Q9NR97) (assay: TLR8 inhibition reporter assay (HEK-Blue SEAP)). Details: HEK-Blue cells overexpressing human TLR8, R848 15.9 μM, 22 hour incubation.
T1 construct: host or cells: HEK-Blue cells
T1 sequence (Q9NR97 27-1041): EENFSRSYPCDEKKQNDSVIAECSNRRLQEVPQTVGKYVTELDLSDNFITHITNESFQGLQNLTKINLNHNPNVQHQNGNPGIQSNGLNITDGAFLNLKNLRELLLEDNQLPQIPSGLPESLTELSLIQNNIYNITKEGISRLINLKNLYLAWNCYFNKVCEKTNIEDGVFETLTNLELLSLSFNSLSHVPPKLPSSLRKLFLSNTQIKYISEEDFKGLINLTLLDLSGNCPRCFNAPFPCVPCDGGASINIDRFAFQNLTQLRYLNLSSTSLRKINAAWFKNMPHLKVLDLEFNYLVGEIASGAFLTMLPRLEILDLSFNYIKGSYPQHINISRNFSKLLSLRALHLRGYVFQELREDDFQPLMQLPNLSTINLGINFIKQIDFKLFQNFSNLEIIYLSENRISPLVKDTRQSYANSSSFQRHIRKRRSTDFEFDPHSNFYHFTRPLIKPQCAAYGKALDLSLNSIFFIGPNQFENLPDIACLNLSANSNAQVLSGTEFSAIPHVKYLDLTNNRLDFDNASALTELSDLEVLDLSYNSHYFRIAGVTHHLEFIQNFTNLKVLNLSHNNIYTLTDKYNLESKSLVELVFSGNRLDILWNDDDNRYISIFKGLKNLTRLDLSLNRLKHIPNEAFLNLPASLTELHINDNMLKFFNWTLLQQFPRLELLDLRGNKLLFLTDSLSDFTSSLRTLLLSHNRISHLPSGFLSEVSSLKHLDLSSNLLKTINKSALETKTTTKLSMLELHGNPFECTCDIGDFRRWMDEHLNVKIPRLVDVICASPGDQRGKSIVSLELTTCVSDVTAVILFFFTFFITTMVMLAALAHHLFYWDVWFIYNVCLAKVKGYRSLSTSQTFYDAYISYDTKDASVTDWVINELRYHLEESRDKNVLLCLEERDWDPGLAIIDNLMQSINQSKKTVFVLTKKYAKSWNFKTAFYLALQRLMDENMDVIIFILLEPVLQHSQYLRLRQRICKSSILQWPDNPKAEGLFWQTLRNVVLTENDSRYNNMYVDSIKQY
Format: cell-based
Outline: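 Compound treatment: 30 min, RT, 0.05 nM–50 μM final. Agonist: TLR7 gardiquimod 7.5 μM; TLR8 R848 15.9 μM; TLR9 ODN2006 5 nM. Incubation 22 h, 37 °C, 5% CO2. Readout SEAP, HEK-Blue Detection.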

Row | SMILES | IC50 [nM]
1 | CCN[C@H]1CC[C@@H](n2c(=O)[nH]c3cc(-c4cc(OC)c5ncnn5c4)c(C)cc32)CC1 [Example 63, 1-((1s,4s)-4-(ethylamino)cyclohexyl)-5-(8-methoxy-[1,2,4]triazolo[1,5-a]pyridin-6-yl)-6-methyl-1,3-dihydro-2H-benzo[d]imidazol-2-one] | 21.5
2 | CCC(CC)N1CCC[C@@H](n2c(=O)[nH]c3cc(-c4cc(OC)c5ncnn5c4)c(C)cc32)C1 [Example 67, (R)-5-(8-methoxy-[1,2,4]triazolo[1,5-a]pyridin-6-yl)-6-methyl-1-(1-(pentan-3-yl)piperidin-3-yl)-1,3-dihydro-2H-benzo[d]imidazol-2-one] | 52
3 | COc1cc(-c2cc3[nH]c(=O)n([C@@H]4CCCN(CCC(F)(F)F)C4)c3cc2C)cn2ncnc12 [Example 68, (R)-5-(8-methoxy-[1,2,4]triazolo[1,5-a]pyridin-6-yl)-6-methyl-1-(1-(3,3,3-trifluoropropyl)piperidin-3-yl)-1,3-dihydro-2H-benzo[d]imidazol-2-one] | 121
4 | COc1cc(-c2cc3[nH]c(=O)n([C@@H]4CCCN(C5CCC5)C4)c3cc2C)cn2ncnc12 [Example 69, (R)-1-(1-cyclobutylpiperidin-3-yl)-5-(8-methoxy-[1,2,4]triazolo[1,5-a]pyridin-6-yl)-6-methyl-1,3-dihydro-2H-benzo[d]imidazol-2-one] | 110
5 | COc1cc(-c2cc3[nH]c(=O)n([C@@H]4CCCN(C5CCOCC5)C4)c3cc2C)cn2ncnc12 [Example 70, (R)-5-(8-methoxy-[1,2,4]triazolo[1,5-a]pyridin-6-yl)-6-methyl-1-(1-(tetrahydro-2H-pyran-4-yl)piperidin-3-yl)-1,3-dihydro-2H-benzo[d]imidazol-2-one] | 117
6 | COc1cc(-c2cc3[nH]c(=O)n([C@@H]4CCCN(CC(C)(C)C)C4)c3cc2C)cn2ncnc12 [Example 71, (R)-5-(8-methoxy-[1,2,4]triazolo[1,5-a]pyridin-6-yl)-6-methyl-1-(1-neopentylpiperidin-3-yl)-1,3-dihydro-2H-benzo[d]imidazol-2-one] | 147
7 | COc1cc(-c2cc3[nH]c(=O)n([C@@H]4CCCN(C5COC5)C4)c3cc2C)cn2ncnc12 [Example 72, (R)-5-(8-methoxy-[1,2,4]triazolo[1,5-a]pyridin-6-yl)-6-methyl-1-(1-(oxetan-3-yl)piperidin-3-yl)-1,3-dihydro-2H-benzo[d]imidazol-2-one] | 249
8 | CCC(CC)CN1CCC[C@@H](n2c(=O)[nH]c3cc(-c4cc(OC)c5ncnn5c4)c(C)cc32)C1 [Example 73, (R)-1-(1-(2-ethylbutyl)piperidin-3-yl)-5-(8-methoxy-[1,2,4]triazolo[1,5-a]pyridin-6-yl)-6-methyl-1,3-dihydro-2H-benzo[d]imidazol-2-one] | 73.6
9 | COc1cc(-c2ccc3c(c2)[nH]c(=O)n3C2CCN(C)CC2)cn2ncnc12 [Example 74, 5-(8-methoxy-[1,2,4]triazolo[1,5-a]pyridin-6-yl)-1-(1-methylpiperidin-4-yl)-1,3-dihydro-2H-benzo[d]imidazol-2-one] | > 3130
10 | CCC(CC)CN1CCC(n2c(=O)[nH]c3cc(-c4cc(OC)c5ncnn5c4)ccc32)CC1 [Example 75, 1-(1-(2-ethylbutyl)piperidin-4-yl)-5-(8-methoxy-[1,2,4]triazolo[1,5-a]pyridin-6-yl)-1,3-dihydro-2H-benzo[d]imidazol-2-one] | 1490
11 | CCCN1CCC(n2c(=O)[nH]c3cc(-c4cc(OC)c5ncnn5c4)ccc32)CC1 [Example 76, 5-(8-methoxy-[1,2,4]triazolo[1,5-a]pyridin-6-yl)-1-(1-propylpiperidin-4-yl)-1,3-dihydro-2H-benzo[d]imidazol-2-one] | 251
12 | COc1cc(-c2ccc3c(c2)[nH]c(=O)n3C2CCN(C(C)C)CC2)cn2ncnc12 [Example 77, 1-(1-isopropylpiperidin-4-yl)-5-(8-methoxy-[1,2,4]triazolo[1,5-a]pyridin-6-yl)-1,3-dihydro-2H-benzo[d]imidazol-2-one] | > 3130
13 | COc1cc(-c2ccc3c(c2)[nH]c(=O)n3C2CCN(CC3CCOCC3)CC2)cn2ncnc12 [Example 78, 5-(8-methoxy-[1,2,4]triazolo[1,5-a]pyridin-6-yl)-1-(1-((tetrahydro-2H-pyran-4-yl)methyl)piperidin-4-yl)-1,3-dihydro-2H-benzo[d]imidazol-2-one] | 1380

Molecules with a lower IC50, results first:

Row | IC50 [nM] | SMILES
14 | 19.5 | COc1cc(-c2cc3[nH]c(=O)n([C@@H]4CCCN(CC5CC5)C4)c3cc2C)cn2ncnc12 [Example 55, (R)-1-(1-(cyclopropylmethyl)piperidin-3-yl)-5-(8-methoxy-[1,2,4]triazolo[1,5-a]pyridin-6-yl)-6-methyl-1,3-dihydro-2H-benzo[d]imidazol-2-one]
15 | 18.8 | COc1cc(-c2cc3[nH]c(=O)n([C@H]4CC[C@@H](NC5COC5)CC4)c3cc2C)cn2ncnc12 [Example 59, 5-(8-methoxy-[1,2,4]triazolo[1,5-a]pyridin-6-yl)-6-methyl-1-((1s,4s)-4-(oxetan-3-ylamino)cyclohexyl)-1,3-dihydro-2H-benzo[d]imidazol-2-one]
16 | 11.2 | COc1cc(-c2cc3[nH]c(=O)n([C@@H]4CCCN(CC(C)C)C4)c3cc2C)cn2ncnc12 [Example 56, (R)-1-(1-isobutylpiperidin-3-yl)-5-(8-methoxy-[1,2,4]triazolo[1,5-a]pyridin-6-yl)-6-methyl-1,3-dihydro-2H-benzo[d]imidazol-2-one]
17 | 8.87 | COc1cc(-c2cc3[nH]c(=O)n([C@@H]4CCCN(CC5CCOCC5)C4)c3cc2C)cn2ncnc12 [Example 57, (R)-5-(8-methoxy-[1,2,4]triazolo[1,5-a]pyridin-6-yl)-6-methyl-1-(1-((tetrahydro-2H-pyran-4-yl)methyl)piperidin-3-yl)-1,3-dihydro-2H-benzo[d]imidazol-2-one]
18 | 5.74 | COc1cc(-c2cc3[nH]c(=O)n([C@H]4CC[C@@H](NCC5CC5)CC4)c3cc2C)cn2ncnc12 [Example 60, 1-((1s,4s)-4-((cyclopropylmethyl)amino)cyclohexyl)-5-(8-methoxy-[1,2,4]triazolo[1,5-a]pyridin-6-yl)-6-methyl-1,3-dihydro-2H-benzo[d]imidazol-2-one]
19 | 5.2 | COc1cc(-c2cc3[nH]c(=O)n([C@H]4CC[C@@H](NC5CCC5)CC4)c3cc2C)cn2ncnc12 [Example 58, 1-((1s,4s)-4-(cyclobutylamino)cyclohexyl)-5-(8-methoxy-[1,2,4]triazolo[1,5-a]pyridin-6-yl)-6-methyl-1,3-dihydro-2H-benzo[d]imidazol-2-one]
20 | 2.35 | COc1cc(-c2cc3[nH]c(=O)n([C@H]4CC[C@@H](NCC(C)C)CC4)c3cc2C)cn2ncnc12 [Example 61, 1-((1s,4s)-4-(isobutylamino)cyclohexyl)-5-(8-methoxy-[1,2,4]triazolo[1,5-a]pyridin-6-yl)-6-methyl-1,3-dihydro-2H-benzo[d]imidazol-2-one]
21 | 1.85 | COc1cc(-c2cc3[nH]c(=O)n([C@H]4CC[C@@H](NC5CCCCC5)CC4)c3cc2C)cn2ncnc12 [Example 62, 1-((1s,4s)-4-(cyclohexylamino)cyclohexyl)-5-(8-methoxy-[1,2,4]triazolo[1,5-a]pyridin-6-yl)-6-methyl-1,3-dihydro-2H-benzo[d]imidazol-2-one]
22 | 1.76 | CCCN[C@H]1CC[C@@H](n2c(=O)[nH]c3cc(-c4cc(OC)c5ncnn5c4)c(C)cc32)CC1 [Example 64, 5-(8-methoxy-[1,2,4]triazolo[1,5-a]pyridin-6-yl)-6-methyl-1-((1s,4s)-4-(propylamino)cyclohexyl)-1,3-dihydro-2H-benzo[d]imidazol-2-one]
23 | 1.7 | COc1cc(-c2cc3[nH]c(=O)n([C@H]4CC[C@@H](NC5CCCC5)CC4)c3cc2C)cn2ncnc12 [Example 65, 1-((1s,4s)-4-(cyclopentylamino)cyclohexyl)-5-(8-methoxy-[1,2,4]triazolo[1,5-a]pyridin-6-yl)-6-methyl-1,3-dihydro-2H-benzo[d]imidazol-2-one]
24 | 0.66 | COc1cc(-c2cc3[nH]c(=O)n([C@H]4CC[C@@H](NCC5CCCCC5)CC4)c3cc2C)cn2ncnc12 [Example 66, 1-((1s,4s)-4-((cyclohexylmethyl)amino)cyclohexyl)-5-(8-methoxy-[1,2,4]triazolo[1,5-a]pyridin-6-yl)-6-methyl-1,3-dihydro-2H-benzo[d]imidazol-2-one]

Source: patent publication US12187723B2 (BRISTOL-MYERS SQUIBB COMPANY, priority 2019, dated 2025)
